Results taken from patent publication US20150148235A1, “HERBICIDE-RESISTANT SUNFLOWER PLANTS WITH MULTIPLE HERBICIDE RESISTANT ALLELES OF AHASL1 AND METHODS OF USE” (NIDERA S.A., priority 2013, published 2015).
Like-named read-outs stand apart in the source and are kept apart here.

Key:
[1] = system: AHAS enzyme, A122T Heterozygous sunflower; assay: AHAS enzyme activity assay, leaf extract; format: biochemical, Helianthus annuus; conditions: A122T heterozygous hybrid (Set 2)
Method: (§1) Twelve greenhouse grown sunflower plants from each of the lines depicted in Table 21 were bulked and subjected to an AHAS enzyme activity assay via the method of Singh et al. (1988) Anal. Biochem. 171:173-179. Each activity assay was repeated twice. Due to the large number of samples, the experiment was split into two sets (Table 21).
(§2) Young, actively growing leaves, from four week old plantlets, were ground in a mortar and pestle with liquid N2 and extracted with a buffer composed of 100 mM Pyruvate, 200 mM KH2PO4, 20 mM MgCl2, 2 mM thiamine pyrophosphate and […]. Plant extracts were then spun through a 10 mL Zeba TM desalt spin column (Pierce #89893) as per the manufacturer's recommendation. The inhibition assay was performed as described by Singh et al. (1988) Anal. Biochem. 171:173-179. Assays were conducted in a 96-well format. Fifty μl of inhibitor was added to each well containing 50 μl of soluble protein extract to give final concentrations of 0.78, 1.56, 3.125, 6.25, 12.5, 25, 50 and 100 μM imazamox or 0.78, 1.56, 3.125, 6.25, 12.5, 25, 50 and 100 μM imazapyr. Zero herbicide controls were also included for each line. Reactions were processed as outlined by Singh et al. (1988) Anal. Biochem. 171:173-179. Absorbance was measured at 530 nm. AHAS activity, expressed as the mean of the absorbance values for each treatment, was presented as a percentage of the mean of the zero-herbicide controls.

[2] = system: AHAS enzyme, WT sunflower line B7; assay: AHAS enzyme activity assay, leaf extract; format: biochemical, Helianthus annuus; conditions: 100 μM
Method: as §1, §2

[3] = system: sunflower hybrids H1, H2, H3, H5, H6; conditions: in vivo
[4] = system: sunflower hybrids H1, H2, H3, H5, H6; assay: Field trial Venado Tuerto 2006, imazapyr applied at V8 or R1 stage, Phytotoxicity Index, Example 4; conditions: for Mean Phytotoxicity Index (scale 0-50): H5 (L3 × WT, 122/Wild type), 160 g ai/ha applied at R1
[5] = system: sunflower GM40 (A122T), HA425 (A205V) and progeny; format: in vivo, Helianthus annuus
Method: To determine the phenotypic interactions of the resistance gene A122T and the Imr1 gene (A205V) already described in IMI-R sunflowers (HA425), F1, F2 and BC1F1 populations from the cross GM40 (A122T)/HA425 (A205V) were evaluated at two herbicide applications rates (80 and 320 g. a. i. Ha^−1 of imazapyr). […] When F2 and BC1F1 populations were scored at the higher herbicide rate (320 g. a. i. Ha-1), which discriminates both parents, segregation for susceptibility was observed. Only two phenotypic classes could be detected, a resistant class with plants without any injury or slight symptoms and a susceptible phenotype that was killed like the control line HA425.

SMILES | AHAS activity ([1]; 50 μM) | AHAS activity ([1]; 100 μM) | AHAS activity ([2]; WT line B7, Set 1) | AHAS activity ([2]; WT line B7, Set 2) | Phytotoxicity Index (scale 0-50) [3] | Mean Phytotoxicity Index (scale 0-50) ([4]; 14 DAT) | Mean Phytotoxicity Index (scale 0-50) ([4]; 21 DAT) | Phytotoxicity Index (scale 0-50) ([4]; hybrids with at least one A122T allele (A122T/A122T, A122T/A205V, A122/WT), 160 g ai/ha at R1, 14 DAT) | susceptible plants in F2 and BC1F1 populations of GM40 (A122T)/HA425 (A205V) ([5]; 80 g a.i./ha (1x, lower rate)) | response of control line HA425 ([5]; HA425 (A205V), 320 g a.i./ha)
COCc1cnc(C2=NC(C)(C(C)C)C(=O)N2)c(C(=O)O)c1 (stereo not shown) [imazamox] | 30% | 30% | 17 % relative to the untreated co | 11 % relative to the untreated co | – | – | – | – | – | –
CC(C)C1(C)N=C(c2ncccc2C(=O)O)NC1=O (stereo not shown) [imazapyr] | – | – | – | – | greater than 35 | 11.7 | 23.3 | less than 11.7 | No susceptible plants were observed | killed
